From ChEMBL document CHEMBL1201862, “PubChem BioAssay data set” (2004)
The source made the active and inactive calls.

Tests used:
[1] = test system: BJ; test: BJ-TERT fibroblast viability loss – cell-based, RAS-independent, luminescence, dose response (AID 1933); type: functional; conditions: Homo sapiens
[2] = test system: BJ; test: BJ-TERT-LT-ST fibroblast viability loss – cell-based, RAS-independent, luminescence, dose response (AID 1935); type: functional; conditions: Homo sapiens;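 also: BJ fibroblasts immortalized with TERT plus LT and ST oncogenes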
[3] = test system: BJ; test: cells; type: functional, cell-based; conditions: Homo sapiens
[4] = DRD fibroblast viability loss – cell-based, non-viral oncogenic, luminescence, dose response (AID 1934); type: functional; conditions: Homo sapiens
[5] = target: T1, Aspartyl aminopeptidase (Plasmodium falciparum 3D7, UniProt Q8I2J3); test: Counterscreen for inhibitors of M1 and M17 aminopeptidases: QFRET-based biochemical high throughput dose response assay for inhibitors of the Plasmodium falciparum M18 Aspartyl Aminopeptidase (PFM18AAP). [Related PubChem assays: 1619 (Screening assay (M17LAP inhibitors).), 1445 (Screening assay (M1AAP inhibitors).)]
T1 sequence (Q8I2J3 whole entry): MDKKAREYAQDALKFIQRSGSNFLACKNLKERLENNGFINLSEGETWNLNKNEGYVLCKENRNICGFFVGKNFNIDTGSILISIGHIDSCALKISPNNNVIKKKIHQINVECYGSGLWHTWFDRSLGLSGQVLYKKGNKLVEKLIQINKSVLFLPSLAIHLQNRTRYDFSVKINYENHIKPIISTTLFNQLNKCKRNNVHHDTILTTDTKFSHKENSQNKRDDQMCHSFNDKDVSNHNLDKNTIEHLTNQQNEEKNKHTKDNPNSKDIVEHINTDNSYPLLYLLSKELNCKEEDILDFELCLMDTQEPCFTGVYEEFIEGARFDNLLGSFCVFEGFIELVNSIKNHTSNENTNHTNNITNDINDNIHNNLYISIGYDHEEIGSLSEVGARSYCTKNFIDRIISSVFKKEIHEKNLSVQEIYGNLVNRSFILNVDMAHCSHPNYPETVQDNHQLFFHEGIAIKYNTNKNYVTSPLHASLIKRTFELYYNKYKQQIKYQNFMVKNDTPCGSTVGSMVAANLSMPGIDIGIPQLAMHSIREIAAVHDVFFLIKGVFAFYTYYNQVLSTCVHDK

[6] = target: Procathepsin L (Homo sapiens, UniProt P07711); test: CTSL1 protease inhibition – biochemical, QFRET, 1536-well, counter-screen for M1/M17 aminopeptidase inhibitor project, dose response (AID 2214)
Sequence of Procathepsin L (P07711 whole entry): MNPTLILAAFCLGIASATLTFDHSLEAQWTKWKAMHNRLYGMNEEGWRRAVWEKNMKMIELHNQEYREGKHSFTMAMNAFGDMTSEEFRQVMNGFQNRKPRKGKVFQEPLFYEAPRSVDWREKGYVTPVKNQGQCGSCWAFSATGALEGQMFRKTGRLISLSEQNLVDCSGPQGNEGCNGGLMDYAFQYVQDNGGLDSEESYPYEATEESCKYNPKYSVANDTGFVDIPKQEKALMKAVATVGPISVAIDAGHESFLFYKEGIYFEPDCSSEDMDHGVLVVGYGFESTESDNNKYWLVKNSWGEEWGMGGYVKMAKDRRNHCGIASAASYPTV

[7] = target: T2, Leucine aminopeptidase (Plasmodium falciparum 3D7, UniProt Q8IL11); test: P. falciparum M17LAP inhibitors, primary screen, biochemical, fluorogenic H-Leu-NHMec substrate, 1536-well (AID 1619); type: functional
T2 sequence (Q8IL11 whole entry): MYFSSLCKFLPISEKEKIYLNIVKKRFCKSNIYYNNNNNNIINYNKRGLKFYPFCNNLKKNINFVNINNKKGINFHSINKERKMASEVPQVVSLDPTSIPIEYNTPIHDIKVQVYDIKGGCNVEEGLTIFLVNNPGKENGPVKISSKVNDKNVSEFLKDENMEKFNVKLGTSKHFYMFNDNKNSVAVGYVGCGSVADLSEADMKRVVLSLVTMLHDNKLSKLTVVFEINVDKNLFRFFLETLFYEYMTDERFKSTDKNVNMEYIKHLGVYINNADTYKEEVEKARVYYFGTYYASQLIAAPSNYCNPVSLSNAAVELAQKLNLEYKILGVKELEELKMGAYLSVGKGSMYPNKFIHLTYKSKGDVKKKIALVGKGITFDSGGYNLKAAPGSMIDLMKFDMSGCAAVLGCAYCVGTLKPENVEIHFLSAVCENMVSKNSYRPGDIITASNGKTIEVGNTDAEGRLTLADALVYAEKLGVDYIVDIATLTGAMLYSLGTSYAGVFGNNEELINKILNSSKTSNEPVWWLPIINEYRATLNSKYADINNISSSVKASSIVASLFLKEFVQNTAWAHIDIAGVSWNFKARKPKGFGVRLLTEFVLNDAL

[8] = target: T3, Caspase-3 (Homo sapiens, UniProt P42574); type: functional;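 also: Dose-response selectivity test against caspase-3 for candidate inhibitors of sentrin-specific proteases (SENPs)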
T3 sequence (P42574 whole entry): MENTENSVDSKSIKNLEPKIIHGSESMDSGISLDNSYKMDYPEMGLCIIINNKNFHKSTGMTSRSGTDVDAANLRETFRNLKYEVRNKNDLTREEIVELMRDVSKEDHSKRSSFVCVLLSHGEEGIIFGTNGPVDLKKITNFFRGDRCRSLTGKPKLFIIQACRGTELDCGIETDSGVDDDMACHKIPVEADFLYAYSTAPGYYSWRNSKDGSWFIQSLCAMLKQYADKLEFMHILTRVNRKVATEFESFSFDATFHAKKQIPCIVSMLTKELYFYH

[9] = target: Heat shock protein HSP 90-alpha (Homo sapiens, UniProt P07900); test: Luminescence-based dose response biochemical high throughput screening assay for inhibitors of the Heat Shock Protein 90 (HSP90). [Related pubchem assays: 1831 (Summary AID.), 1846 (Confirmation screen.), 1789 (Primary screen.)]
[10] = target: T4, Sentrin-specific protease 6 (Homo sapiens, UniProt Q9GZR1); type: functional;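 also: Luminescence-based dose-response confirmatory assay of SENP6 inhibition, following up an ultra-high-throughput screen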
T4 sequence (Q9GZR1 whole entry): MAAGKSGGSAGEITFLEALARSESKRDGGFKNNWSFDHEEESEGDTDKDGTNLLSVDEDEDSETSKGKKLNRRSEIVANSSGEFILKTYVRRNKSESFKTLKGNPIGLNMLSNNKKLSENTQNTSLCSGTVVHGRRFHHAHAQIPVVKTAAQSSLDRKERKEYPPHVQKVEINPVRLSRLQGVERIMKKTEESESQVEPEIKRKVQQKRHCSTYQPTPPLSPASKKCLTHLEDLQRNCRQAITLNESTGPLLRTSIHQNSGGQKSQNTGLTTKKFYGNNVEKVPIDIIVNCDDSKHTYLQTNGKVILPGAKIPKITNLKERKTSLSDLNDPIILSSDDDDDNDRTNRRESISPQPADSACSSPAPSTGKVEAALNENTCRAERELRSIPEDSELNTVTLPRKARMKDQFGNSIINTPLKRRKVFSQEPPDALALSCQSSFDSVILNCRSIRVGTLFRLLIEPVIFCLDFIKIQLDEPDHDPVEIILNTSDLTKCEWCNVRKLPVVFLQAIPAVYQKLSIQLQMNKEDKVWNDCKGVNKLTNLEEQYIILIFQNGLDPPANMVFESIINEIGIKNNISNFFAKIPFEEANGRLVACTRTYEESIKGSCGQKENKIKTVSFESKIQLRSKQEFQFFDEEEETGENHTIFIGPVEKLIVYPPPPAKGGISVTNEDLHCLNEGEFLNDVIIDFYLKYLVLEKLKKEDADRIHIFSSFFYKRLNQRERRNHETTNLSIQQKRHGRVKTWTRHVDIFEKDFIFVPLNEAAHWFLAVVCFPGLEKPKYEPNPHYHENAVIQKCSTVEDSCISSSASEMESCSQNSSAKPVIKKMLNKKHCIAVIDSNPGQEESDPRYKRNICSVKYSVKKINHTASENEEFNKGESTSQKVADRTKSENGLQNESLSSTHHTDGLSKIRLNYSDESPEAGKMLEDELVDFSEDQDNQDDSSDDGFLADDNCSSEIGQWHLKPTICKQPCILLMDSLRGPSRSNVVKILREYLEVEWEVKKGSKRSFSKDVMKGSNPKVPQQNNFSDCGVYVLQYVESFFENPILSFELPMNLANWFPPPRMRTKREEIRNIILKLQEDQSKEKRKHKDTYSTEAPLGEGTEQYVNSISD

[11] = target: T5, Sentrin-specific protease 8 (Homo sapiens, UniProt Q96LD8); type: functional;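 also: luminescence read-out of SENP8 inhibition, dose-response confirmation following an ultra-high-throughput screen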
T5 sequence (Q96LD8 whole entry): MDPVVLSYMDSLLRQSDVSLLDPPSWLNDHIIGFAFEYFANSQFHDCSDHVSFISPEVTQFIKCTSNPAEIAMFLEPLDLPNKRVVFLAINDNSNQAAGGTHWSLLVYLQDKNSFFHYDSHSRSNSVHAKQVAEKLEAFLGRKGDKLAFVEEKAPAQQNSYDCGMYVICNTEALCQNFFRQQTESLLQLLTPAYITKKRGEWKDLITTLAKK

[12] = target: T6, Sentrin-specific protease 7 (Homo sapiens, UniProt Q9BQF6); type: functional;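 also: Luminescence-based dose-response confirmation of ultra-high-throughput screening hits, measuring inhibition of SENP7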
T6 sequence (Q9BQF6 whole entry): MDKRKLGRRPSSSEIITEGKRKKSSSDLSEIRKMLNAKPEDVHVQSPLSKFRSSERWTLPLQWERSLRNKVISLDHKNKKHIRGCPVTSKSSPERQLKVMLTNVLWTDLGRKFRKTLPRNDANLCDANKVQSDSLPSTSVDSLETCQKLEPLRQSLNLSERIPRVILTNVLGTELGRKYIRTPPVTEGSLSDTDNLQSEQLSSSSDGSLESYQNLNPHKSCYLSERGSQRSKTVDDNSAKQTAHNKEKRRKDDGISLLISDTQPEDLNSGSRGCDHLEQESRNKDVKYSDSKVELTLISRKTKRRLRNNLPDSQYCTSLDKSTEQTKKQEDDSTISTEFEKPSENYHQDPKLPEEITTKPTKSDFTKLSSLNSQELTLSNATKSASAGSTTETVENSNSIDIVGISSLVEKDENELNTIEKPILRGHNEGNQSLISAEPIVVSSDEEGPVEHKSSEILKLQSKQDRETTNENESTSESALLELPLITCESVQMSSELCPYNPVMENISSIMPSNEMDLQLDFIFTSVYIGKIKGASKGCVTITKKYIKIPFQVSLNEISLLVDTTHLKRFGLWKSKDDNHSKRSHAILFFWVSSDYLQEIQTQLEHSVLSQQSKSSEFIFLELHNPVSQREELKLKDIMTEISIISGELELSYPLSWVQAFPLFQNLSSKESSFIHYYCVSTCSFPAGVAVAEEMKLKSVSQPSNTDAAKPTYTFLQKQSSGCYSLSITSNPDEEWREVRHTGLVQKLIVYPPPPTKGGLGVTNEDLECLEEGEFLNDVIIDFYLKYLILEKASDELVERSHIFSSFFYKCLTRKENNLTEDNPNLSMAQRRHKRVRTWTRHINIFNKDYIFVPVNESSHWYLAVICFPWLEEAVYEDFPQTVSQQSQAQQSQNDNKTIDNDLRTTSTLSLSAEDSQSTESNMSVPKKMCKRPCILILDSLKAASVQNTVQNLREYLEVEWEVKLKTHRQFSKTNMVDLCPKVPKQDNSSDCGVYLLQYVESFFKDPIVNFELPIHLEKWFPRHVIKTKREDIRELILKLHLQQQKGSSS

[13] = target: Prothrombin (Homo sapiens, UniProt P00734); test: Thrombin 1536 HTS Dose Response Confirmation. [Related pubchem assays: 1046 (Thrombin 1536 HTS; hits were confirmed in this assay)]; type: functional
[14] = target: Luciferin 4-monooxygenase (Photinus pyralis, UniProt P08659); test: Counter Screen for Luciferase-based Assay Positives. [Related pubchem assays: 620, 618, 411 ]
Sequence of Luciferin 4-monooxygenase (P08659 whole entry): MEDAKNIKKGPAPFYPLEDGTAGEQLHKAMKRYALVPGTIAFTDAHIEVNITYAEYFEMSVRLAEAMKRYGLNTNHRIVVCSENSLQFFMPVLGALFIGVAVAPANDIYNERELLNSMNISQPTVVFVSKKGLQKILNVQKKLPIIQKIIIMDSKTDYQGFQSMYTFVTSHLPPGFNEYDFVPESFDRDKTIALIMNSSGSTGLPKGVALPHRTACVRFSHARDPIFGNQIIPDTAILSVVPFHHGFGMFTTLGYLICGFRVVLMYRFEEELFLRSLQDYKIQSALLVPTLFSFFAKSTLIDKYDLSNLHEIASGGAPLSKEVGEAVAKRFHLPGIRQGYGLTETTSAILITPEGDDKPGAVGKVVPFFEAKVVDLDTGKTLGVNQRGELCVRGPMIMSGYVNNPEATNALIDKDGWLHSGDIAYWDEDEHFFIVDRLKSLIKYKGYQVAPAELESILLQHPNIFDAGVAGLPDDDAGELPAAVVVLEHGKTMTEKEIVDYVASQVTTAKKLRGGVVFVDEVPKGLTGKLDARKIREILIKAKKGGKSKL

[15] = test system: HT-1080; test: HT1080 cell viability loss – fluorescence readout (AID 620); type: functional, cell-based; conditions: Homo sapiens

For `c1ccc2c(CCNc3[nH]cnc4ncnc3-4)c[nH]c2c1`, the EC50 [1] was 24.4 µM (active), the EC50 [2] was > 75 µM (not active) and the EC50 [3] was 53.2 µM (active). For the same compound, the EC50 [4] was 30.5 µM (active).

For `Cc1ccc(Nc2nnc(SCC(=O)NC(Cc3c[nH]c4ccccc34)C(=O)O)s2)cc1` (stereo not given), the IC50 [5] was > 73.5 µM (not active), the IC50 [6] was > 59.6 µM (not active) and the IC50 [7] was 3.25 µM (active).

For `CN1C(=O)S/C(=C/c2ccc(OCc3cccc(C(=O)O)c3)cc2)C1=O`, the IC50 [8] was 88.1 µM (active), the IC50 [9] was > 20 µM (not active) and the IC50 [10] was 4.42 µM (active). The IC50 [11] was 8.88 µM (active) and the IC50 [12] was 6.05 µM (active).

In the case of `CCC(=O)n1nc(-c2cccnc2)nc1NCc1ccccc1`, the IC50 [13] is reported as 0.0029 µM (active).

For `Cc1cc(C)n(-c2nc3ccccc3nc2N2CCC(C)CC2)n1`, the EC50 [14] was 1.01 µM (active) and the EC50 [15] was > 50 µM (not active).
